The values that follow come from patent US20110105389A1 (priority 2009, published 2011).

In the first assay the target is T1, human ghrelin receptor (GRLN, growth hormone secretagogue receptor, hGHS-R1a) (Homo sapiens, UniProt Q92847).
T1 construct: purchased PerkinElmer BioSignal #RBHGHSM, lot#1887; host or cells: HEK-293 cells, stably transfected (membranes)
T1 sequence (Q92847 whole entry): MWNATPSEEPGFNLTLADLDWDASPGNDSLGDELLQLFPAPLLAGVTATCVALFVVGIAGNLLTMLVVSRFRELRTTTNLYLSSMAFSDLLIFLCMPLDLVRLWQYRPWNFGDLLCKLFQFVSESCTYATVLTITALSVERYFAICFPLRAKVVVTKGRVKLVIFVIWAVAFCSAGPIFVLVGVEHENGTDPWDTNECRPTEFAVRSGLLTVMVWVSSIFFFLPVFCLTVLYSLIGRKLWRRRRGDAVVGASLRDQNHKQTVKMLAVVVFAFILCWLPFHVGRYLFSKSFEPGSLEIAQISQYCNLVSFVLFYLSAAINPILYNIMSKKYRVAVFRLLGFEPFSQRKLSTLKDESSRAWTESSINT
The assay is described as follows: Competitive radioligand binding assay (ghrelin receptor), Method B1. As to conditions: Ghrelin receptor binding activity, Method B1. As to the method: Multiscreen Harvest plates-GF/C (Millipore, #MAHFC1H60) • 4. […] Bottom seal (Millipore, #MATAH0P00) • 7. […] Binding Buffer: 25 mM Hepes (pH 7.4), 1 mM CaCl2, 5 mM MgCl2. 2.5 mM EDTA, 0.4% BSA
Competition experiments were performed in a 300 μl filtration assay format. • 1. 220 μL of membranes diluted in binding buffer • 2. 40 μL of compound diluted in binding buffer • 3.
Compounds were provided frozen on dry ice at a stock concentration of 10 mM diluted in 100% DMSO and stored at −80° C. until the day of testing. On the test day, compounds were allowed to thaw at rt overnight and then diluted in assay buffer according to the desired test concentrations. Under these conditions, the maximal final DMSO concentration in the assay was 0.1%.
Plates were sealed with TopSeal-A, vortexed gently and incubated at rt for 30 min. The reaction was arrested by filtering samples through Multiscreen Harvest plates (pre-soaked in 0.5% polyethyleneimine) using a Tomtec Harvester, washed 9 times with 500 μL of cold 50 mM Tris-HCl (pH 7.4, 4° C.), and then plates were air-dried in a fumehood for 30 min. A bottom seal was applied to the plates prior to the addition of 25 μL of MicroScint-0 to each well. Plates were than sealed with TopSeal-A and counted for 30 sec per well on a TopCount Microplate Scintillation and Luminescence Counter (PerkinElmer) using a count delay of 60 sec. Results were expressed as counts per minute (cpm).
Data were analyzed by GraphPad Prism (GraphPad Software, San Diego, Calif.) using a variable slope non-linear regression analysis. […] Dmax values were calculated using the following formula: […]
As a reminder, the IC50 is the midpoint of a concentration-inhibition curve. A lower IC50 goes with higher potency. On to `CCC(C)C1NCCOc2ccccc2C=CCNC(=O)C(Cc2ccc(Cl)cc2)NC(=O)C(C(C)OC(C)=O)N(C)C1=O` (stereo not shown) [Compound 1842], for which the IC50 was in the range of 0.1 to 0.5 µM.

`CCC1CCc2ccc(C(F)(F)F)cc2OCCNC(C(C)C)C(=O)N(C)C(C(C)O)C(=O)NC(Cc2ccccc2)C(=O)N1` (stereo not shown) [Compound 1846]: the half-inhibitory concentration (IC50) is 0.1 to 0.5 µM. Still for that read-out and setting: the same measure for `CCC1CCc2ccc(F)cc2OCCNC(C(C)C)C(=O)N(C)C(C(C)OC(C)=O)C(=O)NC(Cc2c[nH]c3ccccc23)C(=O)N1` (stereo not shown) [Compound 1851]: over 0.5 µM. Same read-out and setting: under `CCC1CCc2ccc(F)cc2OC(C)CNC(CC)C(=O)N(C)C(C(C)O)C(=O)NC(Cc2ccccc2)C(=O)N1` (stereo not shown) [Compound 1852] stands over 0.5 µM. On the same count and under the same terms, the same measure for `CC[C@@H]1CCc2c(cccc2C(N)=O)OCCN[C@@H](C(C)C)C(=O)N(C)[C@@H](C(C)O)C(=O)N[C@H](Cc2ccccc2)C(=O)N1` (stereo partly shown) [Compound 1864]: over 0.5 µM; for `CC[C@@H]1CCc2c(NS(C)(=O)=O)cccc2OCCN[C@@H](C(C)C)C(=O)N(C)[C@@H](C(C)O)C(=O)N[C@H](Cc2ccccc2)C(=O)N1` (stereo partly shown) [Compound 1866]: over 0.5 µM.

The molecule `CC(O)[C@H]1C(=O)N[C@H](Cc2ccccc2)C(=O)N[C@H](C)CCc2ccc(F)cc2O[C@H](C)CN[C@@H](C2(C)CC2)C(=O)N1C` (stereo partly shown) [Compound 1869] gave an IC50 of 0.01 to 0.1 µM. On the same count and under the same terms, the same measure for `CC(O)[C@H]1C(=O)N[C@H](Cc2ccc(F)cc2)C(=O)N[C@H](C)CCc2ccc(F)cc2O[C@H](C)CN[C@@H](C2(C)CC2)C(=O)N1C` (stereo partly shown) [Compound 1870]: 0.01 to 0.1 µM. For the molecule `CC(O)[C@H]1C(=O)N[C@H](Cc2ccc(Cl)cc2)C(=O)N[C@H](C)CCc2ccc(F)cc2O[C@H](C)CN[C@@H](C2(C)CC2)C(=O)N1C` (stereo partly shown) [Compound 1871], the half-maximal inhibitory concentration (IC50) fell in the range of 0.01 to 0.1 µM. Same read-out and setting: the same measure for `CC(O)[C@H]1C(=O)N[C@H](Cc2ccc3ccccc3c2)C(=O)NCCCc2cccnc2OCCN[C@@H](C2(C)CC2)C(=O)N1C` (stereo partly shown) [Compound 1880]: 0.001 to 0.01 µM. Still for that read-out and setting: under `CC(C)[C@@H]1NCCOc2cc(F)ccc2CCC(CC(F)(F)F)NC(=O)[C@@H](Cc2c[nH]c3ccccc23)NC(=O)[C@H](C(C)O)N(C)C1=O` (stereo partly shown) [Compound 1885] stands 0.1 to 0.5 µM. For `CC[C@@H]1CCc2c(cccc2C(F)(F)F)OCCN[C@@H](C(C)C)C(=O)N(C)[C@@H](C(C)O)C(=O)N[C@H](Cc2ccccc2)C(=O)N1` (stereo partly shown) [Compound 1888], the IC50 was over 0.5 µM. Same read-out and setting: the same measure for `CC[C@@H]1CCc2c(C#N)cccc2OCCN[C@@H](C(C)C)C(=O)N(C)[C@@H](C(C)O)C(=O)N[C@H](Cc2ccccc2)C(=O)N1` (stereo partly shown) [Compound 1889]: 0.1 to 0.5 µM; for `CC[C@@H]1CCc2c(cccc2C(F)(F)F)OCCN[C@@H](C(C)C)C(=O)N(C)[C@@H](C(C)O)C(=O)N[C@H](Cc2c[nH]c3ccccc23)C(=O)N1` (stereo partly shown) [Compound 1891]: 0.1 to 0.5 µM. On the same count and under the same terms, the same measure for `CC[C@@H]1CCc2c(cccc2C(F)(F)F)OCCN[C@@H](C(C)C)C(=O)N(C)[C@@H](C(C)O)C(=O)N[C@H](Cc2ccc(F)cc2)C(=O)N1` (stereo partly shown) [Compound 1892]: over 0.5 µM. Same read-out and setting: the same measure for `CC[C@@H]1CCc2c(C#N)cccc2OCCN[C@@H](C2(C)CC2)C(=O)N(C)[C@@H](C(C)O)C(=O)N[C@H](Cc2ccccc2)C(=O)N1` (stereo partly shown) [Compound 1895]: 0.1 to 0.5 µM. For the molecule `CC[C@@H]1CCc2c(C#N)cccc2OCCN[C@@H](C(C)C)C(=O)N(C)[C@@H](C(C)O)C(=O)N[C@H](Cc2c[nH]c3ccccc23)C(=O)N1` (stereo partly shown) [Compound 1896], the half-inhibitory concentration (IC50) is 0.1 to 0.5 µM. The molecule `CC[C@@H]1CCc2c(C#N)cccc2OCCN[C@@H](C(C)C)C(=O)N(C)[C@@H](C(C)O)C(=O)N[C@H](Cc2ccc(F)cc2)C(=O)N1` (stereo partly shown) [Compound 1897] returned a concentration for half-maximal inhibition (IC50) of 0.1 to 0.5 µM.

`CC(C)[C@@H]1NCCOc2ncccc2CC[C@@H](C)NC(=O)[C@@H](Cc2ccccc2)NC(=O)[C@H](C(C)O)N(C)C1=O` (stereo partly shown) [Compound 1906] had a half-maximal inhibitory concentration (IC50) of 0.01 to 0.1 µM. Same read-out and setting: under `CC(O)[C@H]1C(=O)N[C@H](Cc2ccccc2)C(=O)N[C@H](C)CCc2cccnc2OCCN[C@@H](C2(C)CC2)C(=O)N1C` (stereo partly shown) [Compound 1907] stands 0.01 to 0.1 µM; under `CC[C@@H]1CCc2c(cccc2C(F)(F)F)OCCN[C@@H](C2(C)CC2)C(=O)N(C)[C@@H](C(C)O)C(=O)N[C@H](Cc2ccccc2)C(=O)N1` (stereo partly shown) [Compound 1912], over 0.5 µM; under `CC[C@@H]1CCc2ccc(F)cc2OCCN[C@@H](C2(C)CC2)C(=O)N(C)[C@@H](C(C)O)C(=O)N[C@H](Cc2ccc(F)cc2)C(=O)N1` (stereo partly shown) [Compound 1913], 0.01 to 0.1 µM. `CC(O)C1C(=O)NC(Cc2ccccc2)C(=O)NC(CC(F)(F)F)CCc2ccc(F)cc2OCCNC(C2(C)CC2)C(=O)N1C` (stereo not shown) [Compound 1921] gave a concentration for half-maximal inhibition (IC50) of 0.1 to 0.5 µM.

Another assay deals with T2, GHS-R1a receptor (HEK293 cells expressing GHS-R1a receptor) (Homo sapiens, UniProt Q92847).
T2 construct: host or cells: HEK293
T2 sequence (Q92847 whole entry): as above
The assay is described as follows: Fluorescence functional assay (ghrelin receptor), Method B2, agonist and antagonist mode. Format: cell-based. The following applies: functional activity as an antagonist at the ghrelin receptor, Methods B2 and B3. How it is done:
• 1. ImageTrak Epi-Fluorescence system (Perkin-Elmer) • 2. MultiDrop TiterTek • 3. CO2 incubators: 5% CO2, humidified, 37° C.
• 1. Hanks' BSS without phenol red (Life Technologies) • 2. Hepes buffer • 3. Probenecid (Sigma) • 4. […] Falcon cell culture 96-well black/clear bottom plates • 6. 0.05% trypsin-EDTA • 7. Cells: HEK293 cells expressing GHS-R1a receptor (Perkin-Elmer BioSignal) were grown in DMEM (Dulbecco's Modified Eagles Medium) with 10% FBS, 1% sodium pyruvate, 1% NEAA and 400 μg/mL geneticin • 8. […] [D-Lys^3]-GHRP-6 (reference antagonist, Phoenix #031-22) • 10. Assay buffer: HBSS-20 mM Hepes containing 2.5 mM probenecid and 0.1% BSA (bovine serum albumin); pH 7.4
Stock solutions of compounds (10 mM in 100% DMSO) were provided frozen on dry ice and stored at −80° C. prior to use. […] Assay plates were then prepared by appropriate dilution in assay buffer.
Typical Final Test Concentrations (N=10) for Test Compounds (agonist):
Typical Final Test Concentrations (N=10) for Test Compounds (antagonist):
Cells were maintained in culture as indicated above. The cells were harvested at a confluency of 70-90% the day before the experiment. Growth medium was removed and the cells rinsed briefly with PBS without Ca^+2 and Mg^+2. 0.05% Trypsin was added and the plates incubated at 37° C. for 5 min to detach the cells. DMEM medium supplemented with 10% FBS was added to inactivate the trypsin and determine the cell concentration. The inoculum was adjusted to a final concentration of 200 cells/μL and dispensed at 200 μL per well into a 96-well block plate. The plates were, incubated at 37° C. overnight.
The plates were removed from the incubator and the media removed by inversion of the plates. Calcium-3 dye, 50 μL, was loaded and then incubated for 1 h at 37° C. The plate was again inverted and then 25 μL of assay buffer added. The plates were then transferred to the ImageTrak system for analysis. For agonist testing, after reading for ten (10) sec, 25 μL of 2× test compound or control was injected into the assay plate. Fluorescence was monitored for an additional 50 sec. A reading was taken every two (2) seconds for a total of 30 readings per assay point.
For antagonist testing, after reading for ten (10) sec, 12.5 μL of 3× test compound or control was injected into the assay plate and allowed to react for three (3) min.
Concentration response curves were analyzed using GraphPad Prism (GraphPad Software, San Diego, Calif.) by non-linear regression analysis (sigmoidal dose-response). EC50 values are calculated using GraphPad.
Emax values were calculated using the following formula: […]
Concentration response curves were analyzed using GraphPad Prism (GraphPad Software, San Diego, Calif.) by non-linear regression analysis (sigmoidal dose-response). IC50 values are calculated using GraphPad.
Imax values were calculated using the following formula: […]
As for `CCC(C)[C@@H]1NCCOc2ccccc2/C=C/CNC(=O)[C@@H](Cc2cccc(O)c2)NC(=O)[C@H](C(C)O)N(C)C1=O` (stereo partly shown) [Compound 1351], the “Antagonist Activity” value is recorded as “C (C = 10-100 nM)”.

For the molecule `CC(C)[C@@H]1NCCOc2ccccc2CC[C@@H](C)NC(=O)[C@@H](Cc2cccc(O)c2)NC(=O)[C@H](C(C)O)N(C)C1=O` (stereo partly shown) [Compound 1352], the “Antagonist Activity” value is on record as “C (C = 10-100 nM)”.

Turning to `CC(C)[C@@H]1NCCOc2ccccc2CC[C@@H](C)NC(=O)[C@@H](Cc2ccccc2)NC(=O)[C@H](C(C)O)N(C)C1=O` (stereo partly shown) [Compound 1361], the “Antagonist Activity” value was “B (B = 1-10 nM)”. In the case of `CC(C)[C@@H]1NCCOc2cc(F)ccc2CCCNC(=O)[C@@H](Cc2ccccc2)NC(=O)[C@H](C(C)O)N(C)C1=O` (stereo partly shown) [Compound 1363], the “Antagonist Activity” value was “C (C = 10-100 nM)”. Same read-out and setting: under `CC(C)[C@@H]1NCCOc2cc(F)ccc2CCCNC(=O)[C@@H](Cc2cccc(F)c2)NC(=O)[C@H](C(C)O)N(C)C1=O` (stereo partly shown) [Compound 1366] stands “B (B = 1-10 nM)”; under `CC(O)[C@H]1C(=O)N[C@H](Cc2ccccc2)C(=O)N[C@H](C)CCc2ccccc2OCCN[C@@H](C(C)(C)C)C(=O)N1C` (stereo partly shown) [Compound 1370], “C (C = 10-100 nM)”. Same read-out and setting: under `CC(C)[C@@H]1NCCOc2ccc(F)cc2CC[C@@H](C)NC(=O)[C@@H](Cc2ccccc2)NC(=O)[C@H](C(C)O)N(C)C1=O` (stereo partly shown) [Compound 1380] stands “B (B = 1-10 nM)”; under `CC(C)[C@@H]1NCCOc2cccc(F)c2CC[C@@H](C)NC(=O)[C@@H](Cc2ccccc2)NC(=O)[C@H](C(C)O)N(C)C1=O` (stereo partly shown) [Compound 1381], “B (B = 1-10 nM)”. As to `CC(C)[C@@H]1NCCOc2ccccc2CC[C@@H](C)NC(=O)[C@@H](Cc2ccc(O)c(Cl)c2)NC(=O)[C@H](C(C)O)N(C)C1=O` (stereo partly shown) [Compound 1383], the “Antagonist Activity” value is “B (B = 1-10 nM)”. Same read-out and setting: the same measure for `CC(C)[C@@H]1NCCOc2ccccc2CC[C@@H](C)NC(=O)[C@@H](Cc2cccnc2)NC(=O)[C@H](C(C)O)N(C)C1=O` (stereo partly shown) [Compound 1384]: “C (C = 10-100 nM)”.

In the case of `CCC[C@@H]1NCCOc2ccccc2CC[C@@H](C)NC(=O)[C@@H](Cc2ccccc2)NC(=O)[C@H](C(C)O)N(C)C1=O` (stereo partly shown) [Compound 1394], the “Antagonist Activity” value is recorded as “D (D = 100-500 nM)”.
